Measurements from ChEMBL document CHEMBL3259572, “Euodenine A: a small-molecule agonist of human TLR4” (J Med Chem, 2014).
Activity calls are given as the source filed them. The calls are words filed in the database; no cut-off is given here.

Legend:
PBMC [1] = assay: Induction of IL-10 production in human PBMC at 10 uM by ELISA; type: functional, cell-based
HEK293 = assay: Agonist activity at chimeric extracellular domain of human TLR4 fused with mouse intracellular domain expressed in HEK293 cells by NFkappaB reporter assay; type: cell-based
[2] = target: T1, Toll-like receptor 9 (Homo sapiens) (UniProt Q9NR96); assay: Agonist activity at human recombinant TLR9 expressed in HEK293 cells at 10 uM by SEAP reporter assay; type: cell-based
T1 sequence (whole entry): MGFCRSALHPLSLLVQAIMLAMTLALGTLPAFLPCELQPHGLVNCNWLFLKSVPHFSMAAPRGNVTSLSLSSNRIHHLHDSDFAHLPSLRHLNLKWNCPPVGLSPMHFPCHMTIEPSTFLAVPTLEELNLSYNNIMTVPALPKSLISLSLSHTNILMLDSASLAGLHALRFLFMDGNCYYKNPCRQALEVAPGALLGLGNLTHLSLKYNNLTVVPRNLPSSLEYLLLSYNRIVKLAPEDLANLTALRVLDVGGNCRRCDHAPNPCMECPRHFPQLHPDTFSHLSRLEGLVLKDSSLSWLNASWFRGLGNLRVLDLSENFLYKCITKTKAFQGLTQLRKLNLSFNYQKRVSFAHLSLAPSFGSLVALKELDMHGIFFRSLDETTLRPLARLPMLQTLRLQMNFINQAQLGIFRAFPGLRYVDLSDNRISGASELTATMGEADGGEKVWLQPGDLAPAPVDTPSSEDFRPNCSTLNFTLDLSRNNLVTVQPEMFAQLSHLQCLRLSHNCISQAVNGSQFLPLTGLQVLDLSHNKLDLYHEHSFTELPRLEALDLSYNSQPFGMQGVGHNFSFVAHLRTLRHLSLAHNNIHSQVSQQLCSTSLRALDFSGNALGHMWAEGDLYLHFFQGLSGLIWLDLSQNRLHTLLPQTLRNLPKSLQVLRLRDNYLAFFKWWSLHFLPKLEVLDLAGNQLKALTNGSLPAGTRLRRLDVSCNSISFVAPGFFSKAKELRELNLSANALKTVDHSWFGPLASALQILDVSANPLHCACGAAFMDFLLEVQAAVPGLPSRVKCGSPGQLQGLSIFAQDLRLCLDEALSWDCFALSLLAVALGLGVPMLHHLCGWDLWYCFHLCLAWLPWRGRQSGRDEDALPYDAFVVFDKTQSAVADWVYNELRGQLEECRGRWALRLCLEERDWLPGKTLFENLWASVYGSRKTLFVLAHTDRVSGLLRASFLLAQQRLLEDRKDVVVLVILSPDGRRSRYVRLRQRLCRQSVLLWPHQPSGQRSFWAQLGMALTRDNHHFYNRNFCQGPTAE

[3] = target: Toll-like receptor 3 (Homo sapiens) (UniProt O15455); assay: Agonist activity at human recombinant TLR3 expressed in HEK293 cells at 10 uM by SEAP reporter assay; type: cell-based
Chain of Toll-like receptor 3 (Homo sapiens) (O15455 whole entry): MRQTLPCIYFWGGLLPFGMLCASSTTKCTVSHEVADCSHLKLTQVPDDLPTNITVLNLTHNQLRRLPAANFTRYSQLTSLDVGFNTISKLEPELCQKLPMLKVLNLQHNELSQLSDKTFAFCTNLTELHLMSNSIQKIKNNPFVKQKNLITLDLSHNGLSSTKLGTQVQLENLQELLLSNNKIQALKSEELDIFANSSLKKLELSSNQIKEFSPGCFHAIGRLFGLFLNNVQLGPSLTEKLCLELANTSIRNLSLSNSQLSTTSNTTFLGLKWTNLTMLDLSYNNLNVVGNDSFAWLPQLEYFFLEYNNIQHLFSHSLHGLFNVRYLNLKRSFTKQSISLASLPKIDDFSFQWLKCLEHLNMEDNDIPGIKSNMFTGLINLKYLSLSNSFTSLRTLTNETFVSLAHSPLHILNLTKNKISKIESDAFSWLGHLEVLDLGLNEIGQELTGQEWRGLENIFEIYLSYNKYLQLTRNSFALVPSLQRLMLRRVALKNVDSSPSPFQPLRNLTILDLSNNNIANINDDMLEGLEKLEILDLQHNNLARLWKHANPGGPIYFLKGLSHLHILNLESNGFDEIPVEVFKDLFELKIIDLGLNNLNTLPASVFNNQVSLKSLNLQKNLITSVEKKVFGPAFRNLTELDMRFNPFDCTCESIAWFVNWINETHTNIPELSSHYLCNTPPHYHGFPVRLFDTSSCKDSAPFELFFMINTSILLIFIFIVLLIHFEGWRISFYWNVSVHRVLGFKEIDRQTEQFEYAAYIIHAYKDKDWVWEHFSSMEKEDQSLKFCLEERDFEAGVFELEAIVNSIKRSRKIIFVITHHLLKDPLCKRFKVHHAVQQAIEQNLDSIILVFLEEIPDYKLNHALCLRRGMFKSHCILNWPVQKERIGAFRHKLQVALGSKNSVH

PBMC [4] = assay: Cytotoxicity against PHA-stimulated human PBMC at 20 uM by WST-1 cell proliferation assay; type: cell-based
[5] = target: T2, Toll-like receptor 8 (Homo sapiens) (UniProt Q9NR97); assay: Agonist activity at human recombinant TLR8 expressed in HEK293 cells at 10 uM by SEAP reporter assay; type: cell-based
T2 sequence (whole entry): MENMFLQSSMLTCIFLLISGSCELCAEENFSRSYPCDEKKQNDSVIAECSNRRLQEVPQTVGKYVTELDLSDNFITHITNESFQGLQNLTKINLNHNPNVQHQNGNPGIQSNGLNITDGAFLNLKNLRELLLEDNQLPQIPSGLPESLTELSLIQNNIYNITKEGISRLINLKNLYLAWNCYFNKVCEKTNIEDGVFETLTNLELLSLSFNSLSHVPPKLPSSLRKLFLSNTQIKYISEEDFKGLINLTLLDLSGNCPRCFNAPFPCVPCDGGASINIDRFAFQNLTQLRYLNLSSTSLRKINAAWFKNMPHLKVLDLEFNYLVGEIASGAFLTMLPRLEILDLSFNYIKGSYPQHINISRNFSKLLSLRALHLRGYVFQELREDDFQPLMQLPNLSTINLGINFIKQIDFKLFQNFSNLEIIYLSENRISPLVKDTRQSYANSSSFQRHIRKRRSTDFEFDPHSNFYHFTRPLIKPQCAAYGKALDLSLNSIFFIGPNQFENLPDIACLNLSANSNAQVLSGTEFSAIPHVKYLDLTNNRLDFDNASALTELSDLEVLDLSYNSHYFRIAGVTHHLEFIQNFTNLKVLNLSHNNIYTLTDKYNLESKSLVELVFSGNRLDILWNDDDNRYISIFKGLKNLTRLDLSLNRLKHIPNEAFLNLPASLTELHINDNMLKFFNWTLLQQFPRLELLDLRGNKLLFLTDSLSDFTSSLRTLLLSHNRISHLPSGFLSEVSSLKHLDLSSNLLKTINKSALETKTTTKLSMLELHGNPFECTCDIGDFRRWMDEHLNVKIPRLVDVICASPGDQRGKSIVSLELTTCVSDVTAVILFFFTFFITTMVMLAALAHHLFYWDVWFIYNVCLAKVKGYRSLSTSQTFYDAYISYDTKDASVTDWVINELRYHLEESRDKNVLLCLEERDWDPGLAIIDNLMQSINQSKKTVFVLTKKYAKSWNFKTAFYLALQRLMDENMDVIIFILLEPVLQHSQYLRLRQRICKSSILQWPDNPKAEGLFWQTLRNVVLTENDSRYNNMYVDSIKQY

Toll-like receptor 4 = Toll-like receptor 4 (Homo sapiens, UniProt O00206); assay: Agonist activity at chimeric extracellular domain of human TLR4 fused with human intracellular domain expressed in HEK293 cells by NFkappaB reporter assay; type: cell-based
Chain of Toll-like receptor 4 (O00206 whole entry, the tested form may be a part): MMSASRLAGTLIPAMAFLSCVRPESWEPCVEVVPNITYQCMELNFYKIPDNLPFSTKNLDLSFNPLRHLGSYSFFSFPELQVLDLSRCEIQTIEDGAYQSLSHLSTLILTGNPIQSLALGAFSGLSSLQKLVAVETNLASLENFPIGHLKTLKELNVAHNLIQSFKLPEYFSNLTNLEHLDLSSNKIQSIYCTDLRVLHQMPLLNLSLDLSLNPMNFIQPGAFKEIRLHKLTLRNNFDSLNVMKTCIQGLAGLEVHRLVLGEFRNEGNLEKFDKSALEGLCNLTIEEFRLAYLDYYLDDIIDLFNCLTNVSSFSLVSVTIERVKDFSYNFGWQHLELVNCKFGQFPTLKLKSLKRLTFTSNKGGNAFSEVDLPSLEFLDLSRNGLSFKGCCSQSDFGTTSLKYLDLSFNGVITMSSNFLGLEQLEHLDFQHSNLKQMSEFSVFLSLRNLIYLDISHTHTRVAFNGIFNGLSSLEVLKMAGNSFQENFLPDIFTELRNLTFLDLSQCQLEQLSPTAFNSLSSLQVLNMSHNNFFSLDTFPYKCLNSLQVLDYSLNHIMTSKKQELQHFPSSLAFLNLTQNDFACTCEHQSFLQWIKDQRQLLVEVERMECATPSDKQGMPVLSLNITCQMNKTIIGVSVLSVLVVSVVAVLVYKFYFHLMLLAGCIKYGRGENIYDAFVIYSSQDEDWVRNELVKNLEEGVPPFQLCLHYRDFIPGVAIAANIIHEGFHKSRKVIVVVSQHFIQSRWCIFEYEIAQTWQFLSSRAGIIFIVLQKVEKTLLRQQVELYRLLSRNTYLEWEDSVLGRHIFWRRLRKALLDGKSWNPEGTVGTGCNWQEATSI

Activity [2]: inactive | Activity [3]: inactive | Activity [5]: inactive | Activity (Toll-like receptor 4): Active
SMILES: COc1cc([C@@H]2[C@@H](C)[C@H]3[C@@H]2c2c(c4ccccc4[nH]c2=O)OC3(C)C)cc(OC)c1OC
Activity (PBMC [1]): Active | Activity (HEK293): Active | Activity (PBMC [4]): Non-toxic
